Test results as given in patent US20120245099A1, “APOPTOSIS INDUCER” (NIHON UNIVERSITY, priority 2009, published 2012).

What was measured:
[1] = test system: MEL cells (mouse leukemia cells); test: Recombinant E3 protein added to cells, LDH activity in culture supernatant (Example 11); assay type: cell-based; details: MEL cells (floating), 1 ng/ml or 5 ng/ml, 24 hours after addition
[2] = test system: CRL cells (human melanoma cells); test: as above; assay type: cell-based; details: CRL cells (adherent), 1 ng/ml or 5 ng/ml, 24 hours after addition
[3] = test system: P5 cells (vascular endothelial cell line); test: as above; assay type: cell-based; details: P5 cells (adherent), 1 ng/ml or 5 ng/ml, 24 hours after addition
Cos cells [4] = test: Concentration dependence of recombinant E3 protein, LDH activity in culture supernatant (Example 10); assay type: cell-based; details: 24 hours after addition
Description: A recombinant E3 protein produced from transformed E. coli was added at different concentrations (0 to 2.0 ng/ml) to cultured Cos cells. At 24 hours after addition, the culture supernatants were each measured for LDH activity.

Cos cells [5] = test: Recombinant E3 protein added to cultured Cos cells, H33342 staining (Example 8); assay type: cell-based; details: recombinant protein from E. coli, 24 hours after addition
Description: To cultured Cos cells, a recombinant E3 protein produced from transformed E. coli was added. At 24 hours after addition, the cells were stained with H33342 and observed under a phase contrast microscope and a fluorescent microscope.

Cos cells [6] = test: LDH activity in supernatant of Cos cells transformed with E3, E3 mutants or F IX EGF domain (Example 9); assay type: cell-based; details: APtag4 vector, medium replaced 4 hours after gene transfer, measured after further 24 hours
Text: cDNA for E3 (a part of Del-1) or an amino acid substitution mutant thereof was integrated into an AP expression vector (APtag4) and then introduced into cultured Cos cells. Likewise, cDNA for the EGF domain of blood coagulation factor IX (F IX; cDNA: SEQ ID NO: 24, amino acid sequence: SEQ ID NO: 25) was also integrated into APtag4 and then introduced into cultured Cos cells. As a control, an AP expression vector free from the above cDNAs for E3 and so on was used. It should be noted that the amino acid substitution mutants of E3 used for the above purpose were E3 D136E (cDNA: SEQ ID NO: 34, amino acid sequence: SEQ ID NO: 35), E3 D136N (cDNA: SEQ ID NO: 36, amino acid sequence: SEQ ID NO: 37) and E3 Y141F (cDNA: SEQ ID NO: 38, amino acid sequence: SEQ ID NO: 39). […] At 4 hours after gene transfer, the medium in each case was replaced with fresh culture medium and, after further 24 hours, the supernatant was measured for LDH activity. A cell lysate was prepared for each case and measured for LacZ activity. […]

Cos cells [7] = test: LDH activity in supernatant of Cos cells transformed with cDNA for Del-1 or its parts (Example 7); assay type: cell-based; details: APtag4 vector, medium replaced 24 hours after gene transfer, measured after further one hour
Text: cDNA for full-length Del-1 (SEQ ID NO: 4) was integrated into an AP expression vector (APtag4) and then introduced into cultured Cos cells. Likewise, cDNA for a part of Del-1 was also integrated into APtag4 and then introduced into cultured Cos cells. As a control, an AP expression vector free from the above cDNA for full-length Del-1 or a part thereof was used. It should be noted that the members each used as a part of Del-1 were EGF-like domains in the full-length Del-1 protein, i.e., EGF1 (E1; cDNA: SEQ ID NO: 26, amino acid sequence: SEQ ID NO: 27), EGF2 (E2; cDNA: SEQ ID NO: 28, amino acid sequence: SEQ ID NO: 29) and EGF3 (E3; cDNA: SEQ ID NO: 6, amino acid sequence: SEQ ID NO: 7), a fusion protein between discoidin I-like domains, i.e., Discoidin1 and Discoidin2 (C1C2; cDNA: SEQ ID NO: 30, amino acid sequence: SEQ ID NO: 31), an amino acid substitution (D136E) mutant of the above full-length Del-1 (Del1m; cDNA: SEQ ID NO: 32, amino acid sequence: SEQ ID NO: 33), as well as an amino acid substitution (D136E) mutant of E3, i.e., E3 D136E (E3m; cDNA: SEQ ID NO: 34, amino acid sequence: SEQ ID NO: 35). […] At 24 hours after gene transfer, the medium in each case was replaced with fresh culture medium and, after further one hour, the supernatant was measured for LDH activity. A cell lysate was prepared for each case and measured for LacZ activity. […]

[8] = test system: SCCKN cells (human oral squamous cell carcinoma-derived cell line); test: Tumor-transplanted model mice, intratumoral gene transfer, tumor size over time (Example 12); assay type: in vivo; details: nude mice with SCCKN tumors, 10 μg DNA, Day0 to Day7
Description: For measurement of tumor size, the long axis and short axis of each tumor were measured with a ruler and multiplied by each other. In the figure, the tumor size (vertical axis) is expressed as a relative value (mean±SD), assuming that the value obtained at the time of gene transfer is set to 1.
Using tumor-transplanted model mice, a peptide containing the EGF3 domain, which is a part of Del-1, was studied for its therapeutic effect on tumor. More specifically, this peptide was verified as to whether its combined use with the FasL (Fas ligand) protein, whose antitumor effect has already been established, would enhance the antitumor effect when compared to FasL alone. […]
Then, 5×10^6 SCCKN cells (human oral squamous cell carcinoma-derived cell line) were injected under the dorsal skin of nude mice at 5 weeks of age. The mice were then measured over time for their tumor size. […]
The tumor size after gene transfer was measured over time (for 7 days: Day0 to Day7), and the results obtained are shown in FIG. 12.

“E3: EGF3 EGF-like domain of Del-1, amino acids 123-157, SEQ ID NO: 7 (CEAEPCRNGGICTDLVANYSCECPGEFMGRNCQYK; listed as Mus musculus)” was tested, and the “cytotoxic activity, LDH activity” value [1] was “no cytotoxic activity”, the “cytotoxic activity (apoptosis induction), LDH activity” value [2] was “showed cytotoxic activity” and the “cytotoxic activity (apoptosis induction), LDH activity” value [3] was “showed cytotoxic activity”. The “E3 protein concentration effective for apoptosis induction (LDH activity)” value (Cos cells [4]; 0 to 2.0 ng/ml) was no less than 0.4 ng/mL, the “E3 protein concentration above which the effect on apoptosis induction remained unchanged” value (Cos cells [4]) was “higher than 1 ng/ml” and the “chromosome aggregation (H33342 nuclear staining)” value (Cos cells [5]) was “chromosomes were aggregated”. The “LDH activity of supernatant, normalized by LacZ activity” value (Cos cells [6]) was “high LDH activity”.

For “E3m: amino acid substitution (D136E) mutant of E3, SEQ ID NO: 35 (CEAEPCRNGGICTELVANYSCECPGEFMGRNCQYK; listed as Mus musculus)”, the “increase in LDH activity of supernatant, normalized by LacZ activity” value (Cos cells [7]) was “lost”.

For “F IX: EGF domain of blood coagulation factor IX, SEQ ID NO: 25 (CESNPCLNGGICKDDISSYECWCQVGFEGRNCEL; listed as Mus musculus)”, the “LDH activity of supernatant, normalized by LacZ activity” value (Cos cells [6]) was “high LDH activity”.

B1: E3C1: fusion peptide between EGF3 domain and Discoidin1, amino acids 123 to 319 of mouse Del-1, SEQ ID NO: 42 (protein, listed as Mus musculus)
chain: CEAEPCRNGGICTDLVANYSCECPGEFMGRNCQYKCSGPLGIEGGIISNQQITASSTHRALFGLRKWYPYYARLNKKGLINAWTAAENDRWPWIQINLQRKMRVTGVITQGAKRIGSPEYIKSYKIAYSNDGKTWAMYKVKGTNEEMVFRGNVDNNTPYANSFTPPIKAQYVRLYPQICRRHCTLRMELLGCELSGC
In the case of B1, the “antitumor effect (tumor size) of E3C1 cDNA together with FasL cDNA compared with FasL alone” value [8] is reported as “higher antitumor effect”.
